The record followed here is ChEMBL document CHEMBL1201862, “PubChem BioAssay data set” (2004).

The target of assay [1] is Aryl hydrocarbon receptor (Homo sapiens, UniProt P35869). The note with it: Potency.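 Also: confirmatory quantitative high-throughput screen measuring activation of the AhR signaling pathway.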
Assay [2] can be described thus: Vero cell cytotoxicity, cytotoxicity control for M. tuberculosis inhibitor project, purified and synthesized samples, set 3 (AID 504684). In kind it is functional. As to conditions: […].
Assay [3] has as its target Adenosylmethionine-8-amino-7-oxononanoate aminotransferase (Mycobacterium tuberculosis, UniProt P9WQ81). Put plainly: Mycobacterium tuberculosis BioA enzyme inhibitor Measured in Biochemical System Using Plate Reader - 2163-02_Inhibitor_Dose_CherryPick_Activity. It counts as functional, Mycobacterium tuberculosis UT205.
Assay [4] deals with Streptococcus sp. 'group A'. Nature of the assay: growth inhibition of control SK(-) GAS strain, dose response, counter-screen for streptokinase expression inhibitor project, luminescence, kanamycin, BacTiterGlo, confirmation (AID 1900). In kind it is functional, organism-based. (The purpose of a counterscreen is to sort out artefacts and off-target activity.)
The target of assay [5] is Induced myeloid leukemia cell differentiation protein Mcl-1 (Homo sapiens, UniProt Q07820). It counts as functional.
Another assay concerns Streptococcus. Nature of the assay: Group A Streptococcus viability loss, dose response, counter-screen for streptokinase expression inhibitor project, luminescence, BacTiterGlo (AID 1915).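 Also: potency for reduction of bacterial viability or growth.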 It counts as functional, organism-based.
The nature of assay [6]: Luminescence Cell-Based Dose Retest to Confirm Inhibitors of Cancer Stem Cells. [Related pubchem assays (depositor defined):AID2717, AID2721]. It counts as functional. As to conditions: Homo sapiens.
In assay [7] the target is DNA (cytosine-5)-methyltransferase 1 (Homo sapiens, UniProt P26358). Nature of the assay: DNMT1 methyltransferase inhibitors, confirmation, biochemical, fluorescent molecular beacon (AID 602386). It counts as functional.
A short description of assay [8]: ADAM10 inhibitors, peptide cleavage, dose response, biochemical, QFRET (AID 743254).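 Also: ADAM10 enzyme with the DM2 quenched FRET peptide as substrate; EDANS fluorescence gain as the protease cuts the substrate; inhibitor potency against ADAM10 proteolytic activity.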
For assay [9], the target named is Disintegrin and metalloproteinase domain-containing protein 17 (Homo sapiens, UniProt P78536). Put plainly: ADAM17 protease inhibitors, dose response, counter-screen for ADAM10 exosite inhibitor project, biochemical, quenched FRET substrate (AID 743253).
Assay [10] can be described thus: AlphaScreen signal interference compounds, dose response, artefact control for ARNT-TACC3 interaction inhibitor project, biochemical, luminescence, cherry-pick (AID 651705).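 Also: AlphaScreen bead proximity signal that flags compounds interfering with the detection technology; potency reflects signal decrease which marks the compound as an assay artifact.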 In kind it is functional. (In general: Alpha assays give light when donor and acceptor beads are brought close together.)
Assay [11] deals with T1, Sentrin-specific protease 8 (Homo sapiens, UniProt Q96LD8).
T1 sequence (Q96LD8 whole entry): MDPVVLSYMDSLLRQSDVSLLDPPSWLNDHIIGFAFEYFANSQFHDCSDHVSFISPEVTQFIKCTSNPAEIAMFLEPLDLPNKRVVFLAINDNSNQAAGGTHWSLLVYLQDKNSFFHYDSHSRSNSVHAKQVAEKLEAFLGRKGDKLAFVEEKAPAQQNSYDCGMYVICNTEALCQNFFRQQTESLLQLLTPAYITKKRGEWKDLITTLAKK
It counts as functional.

For assay [12], the target named is T1, Sentrin-specific protease 8. It counts as functional. The source holds these as a separate data set.
The target in assay [13] is T2, ATP-dependent translocase ABCB1 (Homo sapiens, UniProt P08183). Put plainly: ABCG2 efflux pump inhibitor potency, dose response, Ig-MXP3 cells, JC-1, flow cytometry, set 2 (AID 504566).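 Also: flow cytometry median green fluorescence of retained JC-1 dye; potency of efflux pump inhibition measured as rising substrate retention.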 In kind it is functional. As to conditions: read-out: EC50_MICROM_. (In flow cytometry, cells or beads pass a laser one at a time.)
The target of assay [14] is T2, ATP-dependent translocase ABCB1. Put plainly: ABCB1 efflux inhibitor potency, dose response, Jurkat-DNR cells, JC-1, flow cytometry, set 2 (AID 504569).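 Also: potency of pump inhibitors that raise cellular JC-1 green fluorescence up to the nicardipine level.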 In kind it is functional. The note with it: read-out: EC50_MICROM_.
Assay [15] concerns the target T3, Low molecular weight phosphotyrosine protein phosphatase (Homo sapiens, UniProt P24666).
T3 sequence (P24666 whole entry): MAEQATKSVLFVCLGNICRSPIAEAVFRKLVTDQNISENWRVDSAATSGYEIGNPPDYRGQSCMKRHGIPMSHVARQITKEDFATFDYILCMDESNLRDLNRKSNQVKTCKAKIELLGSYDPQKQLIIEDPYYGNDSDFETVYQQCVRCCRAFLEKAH
It counts as functional. The note with it: read-out: IC50_Mean.

Assay [16] has as its target T3, Low molecular weight phosphotyrosine protein phosphatase. It counts as functional. The note with it: read-out: IC50_Mean. The source holds these as a separate data set.
Assay [17] in a line: Luminescence Cell-Based Dose Confirmation HTS to Identify Activators of 5'UTR Stem-Loop Driven Alpha-Synuclein mRNA Translation in H4 Neuroglioblastoma Cells. [Related pubchem assays: 1829 (Project Summary), 1814 (Primary HTS)]. It counts as functional.
Assay [18] is described as follows: Luminescence Cell-Based Dose Response HTS to Identify Activators of Luciferase Translation or Activity in H4 […] Cells. [Related pubchem assays: 1829 (Project Summary), 1814 (Primary HTS)]. In kind it is functional.
The next assay deals with H4. Put plainly: Luminescence Cell-Based Dose Response HTS to Identify Activators of 5'UTR Stem-Loop Driven Prion Protein mRNA Translation in H4 Neuroglioblastoma Cells. [Related pubchem assays: 1829 (Project Summary), 1814 (Primary HTS)]. It counts as functional. As to conditions: Homo sapiens.
Assay [19] can be described thus: HeLa cell cytotoxicity, dose response, cytotoxicity control for MgcRacGAP inhibitor project (AID 624300). In kind it is functional.
Assay [20] has as its target T4, Rac GTPase-activating protein 1 (Homo sapiens, UniProt Q9H0H5).
T4 sequence (Q9H0H5 whole entry): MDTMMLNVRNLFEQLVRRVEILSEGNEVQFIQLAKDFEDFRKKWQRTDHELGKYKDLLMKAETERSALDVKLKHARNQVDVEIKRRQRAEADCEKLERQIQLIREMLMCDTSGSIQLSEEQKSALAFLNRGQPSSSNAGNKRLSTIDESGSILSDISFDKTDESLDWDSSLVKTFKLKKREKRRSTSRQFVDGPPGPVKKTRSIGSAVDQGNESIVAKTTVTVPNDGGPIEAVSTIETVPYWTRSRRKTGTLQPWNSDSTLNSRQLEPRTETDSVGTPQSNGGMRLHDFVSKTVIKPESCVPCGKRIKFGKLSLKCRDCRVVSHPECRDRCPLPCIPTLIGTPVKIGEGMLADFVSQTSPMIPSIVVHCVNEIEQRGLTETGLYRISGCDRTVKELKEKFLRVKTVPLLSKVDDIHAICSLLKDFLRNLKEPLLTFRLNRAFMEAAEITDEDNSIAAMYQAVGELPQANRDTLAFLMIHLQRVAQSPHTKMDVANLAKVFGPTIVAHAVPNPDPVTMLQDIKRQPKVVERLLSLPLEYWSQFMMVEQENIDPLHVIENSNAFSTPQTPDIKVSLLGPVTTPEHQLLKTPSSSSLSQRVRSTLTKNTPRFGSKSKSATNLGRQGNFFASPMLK
Nature of the assay: MgcRacGAP GTPase-activating activity inhibitors, confirmation, biochemical, ADP Hunter fluorescence, primary and confirmatory (AID 624330). In kind it is functional.

For the next assay, the system named is Vero. Put plainly: cells. In kind it is functional. The note with it: Chlorocebus sabaeus.
Assay [21] is described as follows: Fluorescence-based cell-based high throughput dose response assay for inhibitors of the interaction of nucleotide-binding oligomerization domain containing 2 (NOD2) and the receptor-interacting serine-threonine kinase 2 (RIPK2). In kind it is functional. The note with it: Homo sapiens.

The source made the active and inactive calls.

T2 sequence (P08183 whole entry): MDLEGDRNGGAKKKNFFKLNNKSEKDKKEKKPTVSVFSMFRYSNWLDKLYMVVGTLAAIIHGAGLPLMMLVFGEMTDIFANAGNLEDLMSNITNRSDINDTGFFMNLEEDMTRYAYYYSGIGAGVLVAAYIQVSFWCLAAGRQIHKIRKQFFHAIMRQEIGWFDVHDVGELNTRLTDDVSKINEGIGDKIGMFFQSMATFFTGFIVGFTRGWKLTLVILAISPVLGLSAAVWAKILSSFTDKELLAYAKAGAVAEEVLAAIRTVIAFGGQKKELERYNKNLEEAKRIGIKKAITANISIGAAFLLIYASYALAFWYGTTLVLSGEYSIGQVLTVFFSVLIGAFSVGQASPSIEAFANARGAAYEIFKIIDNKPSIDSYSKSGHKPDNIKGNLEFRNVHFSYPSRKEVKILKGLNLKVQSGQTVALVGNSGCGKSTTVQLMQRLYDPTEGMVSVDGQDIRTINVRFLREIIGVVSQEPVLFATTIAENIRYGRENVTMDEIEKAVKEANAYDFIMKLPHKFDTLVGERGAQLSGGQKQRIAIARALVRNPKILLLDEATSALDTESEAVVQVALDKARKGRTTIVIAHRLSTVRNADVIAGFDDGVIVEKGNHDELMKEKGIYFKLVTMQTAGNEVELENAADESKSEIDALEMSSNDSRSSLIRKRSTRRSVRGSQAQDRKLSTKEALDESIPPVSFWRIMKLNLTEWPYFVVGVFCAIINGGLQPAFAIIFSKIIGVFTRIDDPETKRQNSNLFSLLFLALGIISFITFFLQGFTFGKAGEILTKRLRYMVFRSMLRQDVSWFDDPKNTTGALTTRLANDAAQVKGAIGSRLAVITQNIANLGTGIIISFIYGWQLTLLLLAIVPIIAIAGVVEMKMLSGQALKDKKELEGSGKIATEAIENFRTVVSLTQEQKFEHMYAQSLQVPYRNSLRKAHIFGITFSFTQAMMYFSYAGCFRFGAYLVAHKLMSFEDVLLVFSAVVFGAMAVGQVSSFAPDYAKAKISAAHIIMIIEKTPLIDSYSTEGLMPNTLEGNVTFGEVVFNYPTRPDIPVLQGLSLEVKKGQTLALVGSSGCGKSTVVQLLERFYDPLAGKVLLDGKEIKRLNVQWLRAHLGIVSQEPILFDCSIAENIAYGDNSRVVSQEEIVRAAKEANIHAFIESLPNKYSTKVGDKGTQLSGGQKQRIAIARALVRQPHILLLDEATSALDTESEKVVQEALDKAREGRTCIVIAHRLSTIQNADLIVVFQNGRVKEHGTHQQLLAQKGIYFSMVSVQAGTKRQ
Aryl hydrocarbon receptor, sequence (P35869 whole entry): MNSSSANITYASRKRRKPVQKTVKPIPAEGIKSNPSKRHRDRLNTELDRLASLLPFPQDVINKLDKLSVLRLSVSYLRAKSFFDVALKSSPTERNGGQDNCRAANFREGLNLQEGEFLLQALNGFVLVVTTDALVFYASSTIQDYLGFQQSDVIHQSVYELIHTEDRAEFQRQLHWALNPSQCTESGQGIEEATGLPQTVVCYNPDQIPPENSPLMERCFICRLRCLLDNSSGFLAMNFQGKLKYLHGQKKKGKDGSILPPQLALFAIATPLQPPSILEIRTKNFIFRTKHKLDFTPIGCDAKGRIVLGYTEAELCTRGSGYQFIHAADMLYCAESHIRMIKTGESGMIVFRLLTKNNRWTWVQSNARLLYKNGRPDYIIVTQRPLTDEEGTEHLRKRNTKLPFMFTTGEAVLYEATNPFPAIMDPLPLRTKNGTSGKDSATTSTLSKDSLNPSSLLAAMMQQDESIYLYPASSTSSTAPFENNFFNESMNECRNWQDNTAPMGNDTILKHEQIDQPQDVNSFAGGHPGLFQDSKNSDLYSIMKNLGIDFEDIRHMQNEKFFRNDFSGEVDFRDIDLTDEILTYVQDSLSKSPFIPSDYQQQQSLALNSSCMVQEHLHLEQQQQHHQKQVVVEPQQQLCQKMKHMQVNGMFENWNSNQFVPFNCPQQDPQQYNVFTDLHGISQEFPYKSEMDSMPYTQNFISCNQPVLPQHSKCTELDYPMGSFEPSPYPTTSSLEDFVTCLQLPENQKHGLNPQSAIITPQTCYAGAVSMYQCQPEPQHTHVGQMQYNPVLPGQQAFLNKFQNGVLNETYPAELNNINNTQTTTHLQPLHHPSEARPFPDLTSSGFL
Adenosylmethionine-8-amino-7-oxononanoate aminotransferase, sequence (P9WQ81 whole entry): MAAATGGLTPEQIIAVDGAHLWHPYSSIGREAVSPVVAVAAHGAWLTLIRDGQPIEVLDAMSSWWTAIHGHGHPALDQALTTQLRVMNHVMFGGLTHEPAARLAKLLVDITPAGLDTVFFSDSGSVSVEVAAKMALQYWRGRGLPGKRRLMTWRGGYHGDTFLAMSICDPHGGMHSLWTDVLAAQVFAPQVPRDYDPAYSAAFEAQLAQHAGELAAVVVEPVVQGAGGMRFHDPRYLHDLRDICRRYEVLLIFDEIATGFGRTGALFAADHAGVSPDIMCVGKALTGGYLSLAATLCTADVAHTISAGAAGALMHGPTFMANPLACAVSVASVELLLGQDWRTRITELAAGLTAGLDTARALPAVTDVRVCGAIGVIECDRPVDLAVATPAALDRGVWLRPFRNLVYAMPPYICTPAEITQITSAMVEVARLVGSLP
Disintegrin and metalloproteinase domain-containing protein 17, sequence (P78536 whole entry, the tested form may be a part): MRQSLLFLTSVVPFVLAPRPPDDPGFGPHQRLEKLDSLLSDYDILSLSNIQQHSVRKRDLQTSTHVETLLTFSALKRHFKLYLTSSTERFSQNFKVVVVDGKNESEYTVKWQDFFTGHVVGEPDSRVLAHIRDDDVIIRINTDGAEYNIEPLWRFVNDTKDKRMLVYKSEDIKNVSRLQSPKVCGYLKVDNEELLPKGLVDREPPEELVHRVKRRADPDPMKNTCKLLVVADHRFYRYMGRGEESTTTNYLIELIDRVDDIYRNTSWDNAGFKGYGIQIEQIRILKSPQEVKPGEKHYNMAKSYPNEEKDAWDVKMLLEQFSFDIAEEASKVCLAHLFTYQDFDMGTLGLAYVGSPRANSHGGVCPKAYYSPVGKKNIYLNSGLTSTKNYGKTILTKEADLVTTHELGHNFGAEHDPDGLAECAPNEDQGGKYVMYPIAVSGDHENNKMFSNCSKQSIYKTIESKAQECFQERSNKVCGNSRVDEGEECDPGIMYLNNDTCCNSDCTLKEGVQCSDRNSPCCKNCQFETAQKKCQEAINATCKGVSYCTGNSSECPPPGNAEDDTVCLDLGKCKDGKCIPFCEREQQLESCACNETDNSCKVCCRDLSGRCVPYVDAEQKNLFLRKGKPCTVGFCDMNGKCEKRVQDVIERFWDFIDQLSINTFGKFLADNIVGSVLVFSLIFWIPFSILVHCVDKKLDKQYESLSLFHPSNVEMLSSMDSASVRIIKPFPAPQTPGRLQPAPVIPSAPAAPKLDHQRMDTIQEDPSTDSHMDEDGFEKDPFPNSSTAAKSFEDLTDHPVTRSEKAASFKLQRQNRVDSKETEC
Induced myeloid leukemia cell differentiation protein Mcl-1, sequence (Q07820 whole entry): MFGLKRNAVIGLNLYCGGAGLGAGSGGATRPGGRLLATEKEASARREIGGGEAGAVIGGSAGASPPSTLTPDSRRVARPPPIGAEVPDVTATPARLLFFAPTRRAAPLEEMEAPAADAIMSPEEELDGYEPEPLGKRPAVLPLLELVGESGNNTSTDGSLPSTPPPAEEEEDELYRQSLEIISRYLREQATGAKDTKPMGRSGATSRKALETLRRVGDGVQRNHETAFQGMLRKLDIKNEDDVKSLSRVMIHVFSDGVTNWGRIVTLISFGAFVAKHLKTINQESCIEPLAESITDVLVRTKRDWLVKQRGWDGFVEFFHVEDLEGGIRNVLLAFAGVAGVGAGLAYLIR

The AC50 is the concentration at which the activity in the assay is half-maximal. As for `O=C=Nc1ccc(Cl)c(Cl)c1`, the concentration at half-maximal activity (AC50) in assay [1] was 56.2 µM (inconclusive).
For orientation: CC50 means the concentration that lowers cell viability or growth by half. Turning to `O=C(CSc1nccc(O)n1)Nc1ccc(Oc2ccccc2)cc1`, the CC50 in assay [2] is > 100 µM (active).
`CC(=O)c1ccc(NC(=O)COC(=O)Cc2ccsc2)cc1`: the AC50 in assay [3] was 6.97 µM (active).
Regarding `Cc1ccc(C2C(/C=C3/SC(=S)NC3=O)=C(c3cccs3)Oc3ccccc32)cc1` (centres undefined), the EC50 in assay [4] was 0.649 µM (active); in the assay on Streptococcus it was 1.11 µM (active). For the same molecule, the IC50 in assay [5] is 3.63 µM (active); in [7], 3.74 µM (active); in [8], 16.7 µM (inactive); in assay [9], 33.7 µM (inactive). Besides, the AC50 in [6] was 0.874 µM (active).
Turning to `O=C(COc1ccccc1)Nc1nnc(-c2ccco2)o1`, the AC50 in assay [10] was 95 µM (active).
For the molecule `CCOc1cc(C(c2c(C)[nH][nH]c2=O)c2c(C)[nH][nH]c2=O)ccc1OS(=O)(=O)c1ccccc1`, the IC50 in assay [11] is 20.9 µM (active); in assay [12], 33.2 µM (active).
In the case of `O=C(c1ccoc1)N1CCN(c2cc(-c3ccccc3F)nc3cc(-c4cccc(Cl)c4)nn23)CC1`, the EC50 was 1.59 µM (active) in assay [13] and 5.75 µM (active) in [14].
Take `CCc1nc(N)nc(N)c1-c1ccc(Cl)c(N=[N+]=[N-])c1`: the IC50 is 24.2 µM (inactive) in [15] and 14.3 µM (active) in assay [16].
`COc1ccc(/C=N/Nc2ncnc3sc4c(c23)CCCC4)cc1O`: the EC50 in assay [17] is 13.4 µM (active); in assay [18], 6.72 µM (active); with H4 it was 8.38 µM (active). Further, in assay [19], the CC50 was 70.4 µM (active). Moreover, the IC50 in [20] was 56.1 µM (active).
Regarding `O=C1Nc2ccccc2/C1=C\C(=O)c1ccccc1`, the CC50 in the assay on Vero was > 25 µM (active). Also, the IC50 in assay [21] is 5 µM (active).
